Consider 59 sequences from the supplement of paper PMC11208160.
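Note: IS621 recombinase and bridge RNA in Escherichia coli cells.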

This series is described as follows: recombinant barcode read abundance after kanamycin selection (control-corrected) (log10(CPM+1)); higher = more efficient recombination; sequences stand for … in AGTGCAGAGAAAATCGGCCAGTTTTCTCTGCCTGCAGTCCGCATGCCGT…AGATTTATGCAGCGGACTGCCTTTCTCCCAAAGTGATAAACCGGACAGTATCATGGACCGGTTTTCCCGGTAATCCGTATTTGCAAGGTTGGTTTCACT; site = the 11-nt target. The procedure, abridged:
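A vector carrying a T7-inducible recombinase and the last 73 bp of the bridge RNA received, by Gibson cloning, oligos encoding a promoter, target, barcode and the first 104 bridge RNA bases under J23119. The pooled constructs entered E. coli together with a donor plasmid by electroporation. Selection used chloramphenicol/ampicillin/kanamycin with 0.1 mM IPTG, with chloramphenicol/ampicillin LB agar as the control, each in two replicates. Recombination efficiency is the averaged, control-corrected counts-per-million of barcodes at recombinant junctions, reported as log10(CPM+1).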
For “CATGATTCTTGGGTTCTAACCTGTTGCCT (site CATGATTCTAG)”, the “recombinant barcode read abundance (log10)” value was 1.05.
For “CATGATTCTTGGGTTCTAACCTGTTGCCT (site CATTATTCTAG)” the value was 0.0435; for “CATGCTCCTTGGGTTCTAACCTGTTGCAT (site CATGCTCCTAG)”, 0.168; for “CATGCTCCTTGGGTTCTAACCTGTTGCAT (site CATGCTCCTAT)”, 0.194.
With “CATGCTCCTTGGGTTCTAACCTGTTGCCT (site CATGCTCCTAG)” the figure was 0.353; with “CATGCTCCTTGGGTTCTAACCTGTTGCCT (site CATGCTCCTAT)”, 0.512.
For “CATTAGCCTTGGGTTCTAACCTGTTGCCT (site CATAAGCCTAG)” the value was 0.0881.
Turning to “CATTAGCCTTGGGTTCTAACCTGTTGCCT (site CATCAGCCTAG)”, the “recombinant barcode read abundance (log10)” value was found to be 0.26.
With “CATTAGCCTTGGGTTCTAACCTGTTGCCT (site CATGAGCCTAG)” the figure was 0.0107; with “CATTAGCCTTGGGTTCTAACCTGTTGCCT (site CATTAGCCTAG)”, 0.583; with “CATTAGTCTTGGGTTCTAACCTGTTGCCT (site CATTAGTCTAG)”, 1.33.
With “CATTAGTCTTGGGTTCTAACCTGTTGCCT (site TATTAATCTAG)” the figure was 0.0986; with “CATTATCCTTGGGTTCTAACCTGTTGCCT (site CAATATCCTAG)”, 0.0661; with “CATTATCCTTGGGTTCTAACCTGTTGCCT (site CACTATCCTAG)”, 0.161.
With “CATTATCCTTGGGTTCTAACCTGTTGCCT (site CAGTATCCTAG)” the figure was 0.0928; with “CATTATCCTTGGGTTCTAACCTGTTGCCT (site CATTATCCTAG)”, 0.136; with “CATTCAACTTGGGTTCTAACCTGTTGCCG (site CATTCAACTAG)”, 0.0546.
Consider “CATTCAACTTGGGTTCTAACCTGTTGCCG (site CATTCAACTCG)”, for which the “recombinant barcode read abundance (log10)” value worked out at 0.0716.
For “CCAAGATCTTGGGTTCTAACCTGTTGCCT (site CAAAGATCTAG)” the value was 0.178; for “CCAAGATCTTGGGTTCTAACCTGTTGCCT (site CCAAGATCTAG)”, 0.556; for “CCAAGATCTTGGGTTCTAACCTGTTGCCT (site CGAAGATCTAG)”, 0.201.
For “CCAAGATCTTGGGTTCTAACCTGTTGCCT (site CTAAGATCTAG)” the value was 0.46.
For “CCAAGCGCTTGGGTTCTAACCTGTTGCCT (site CCAAGCACTAG)” the value was 0.589.
For “CCAAGCGCTTGGGTTCTAACCTGTTGCCT (site CCAAGCCCTAG)”, the “recombinant barcode read abundance (log10)” value was 0.0283.
For “CCAAGCGCTTGGGTTCTAACCTGTTGCCT (site CCAAGCGCTAG)” the value was 0.769.
For “CCAAGCGCTTGGGTTCTAACCTGTTGCCT (site CCAAGCTCTAG)” the value was 0.209; for “CCAAGGGCTTGGGTTCTAACCTGTTGCAG (site CCAAGGGCTCA)”, 1.09.
For “CCAAGGGCTTGGGTTCTAACCTGTTGCAG (site CCAAGGGCTCC)” the value was 0.546.
For “CCAAGGGCTTGGGTTCTAACCTGTTGCAG (site CCAAGGGCTCG)”, the “recombinant barcode read abundance (log10)” value was 0.537.
Regarding “CCAAGGGCTTGGGTTCTAACCTGTTGCAG (site CCAAGGGCTCT)”, the “recombinant barcode read abundance (log10)” value is 2.13.
In the case of “CCAAGGGCTTGGGTTCTAACCTGTTGCCG (site CCAAGGGCTCA)”, the “recombinant barcode read abundance (log10)” value was found to be 0.0491.
With “CCAAGGGCTTGGGTTCTAACCTGTTGCCG (site CCAAGGGCTCC)” the figure was 0.211; with “CCAAGGGCTTGGGTTCTAACCTGTTGCCG (site CCAAGGGCTCG)”, 0.143.
For “CCAAGGGCTTGGGTTCTAACCTGTTGCCG (site CCAAGGGCTCT)” the value was 0.33; for “CCAAGTCCTTGGGTTCTAACCTGTTGCCA (site CCAAGTCCTTG)”, 0.0554; for “CCAAGTCCTTGGGTTCTAACCTGTTGCCA (site GTTCAGACTAA)”, 0.031.
With “CCAATTGCTTGGGTTCTAACCTGTTGCCT (site CCAATTGCTAG)” the figure was 0.108; with “CCAATTGCTTGGGTTCTAACCTGTTGCCT (site CTAATTGCTAG)”, 0.0541; with “CCACTCCCTTGGGTTCTAACCTGTTGCCT (site CCACTACCTAG)”, 0.166.
“CCACTCCCTTGGGTTCTAACCTGTTGCCT (site CCACTCCCTAG)”: the “recombinant barcode read abundance (log10)” value turned out to be 0.0427.
For “CCACTCCCTTGGGTTCTAACCTGTTGCCT (site CCACTGCCTAG)” the value was 0.0666.
On to “CCACTCCCTTGGGTTCTAACCTGTTGCCT (site CCACTTCCTAG)”, for which the “recombinant barcode read abundance (log10)” value was 0.279.
For “CCACTTCCTTGGGTTCTAACCTGTTGCCT (site CCACTACCTAG)” the value was 0.233.
With “CCACTTCCTTGGGTTCTAACCTGTTGCCT (site CCACTCCCTAG)” the figure was 0.176.
As for “CCACTTCCTTGGGTTCTAACCTGTTGCCT (site CCACTGCCTAG)”, the “recombinant barcode read abundance (log10)” value came to 0.0522.
For “CCACTTCCTTGGGTTCTAACCTGTTGCCT (site CCACTTCCTAG)” the value was 0.0928; for “CCAGAAGCTTGGGTTCTAACCTGTTGCGT (site CCAGAAGCTAC)”, 0.279.
In the case of “CCAGAAGCTTGGGTTCTAACCTGTTGCGT (site CCAGTAGCTCC)”, the “recombinant barcode read abundance (log10)” value is 0.434.
With “CCAGCTGCTTGGGTTCTAACCTGTTGCCT (site CCAGCTGCTAG)” the figure was 1.11; with “CCAGCTGCTTGGGTTCTAACCTGTTGCCT (site GTGCGCTCTGC)”, 0.137.
For the sequence “CCAGGAGCTTGGGTTCTAACCTGTTGCAG (site CCAGGAGCTCT)”, the “recombinant barcode read abundance (log10)” value was determined as 0.312.
Take “CCAGGAGCTTGGGTTCTAACCTGTTGCAG (site TCTGGAGCTCT)”: the “recombinant barcode read abundance (log10)” value was 0.141.
In the case of “CCAGGGACTTGGGTTCTAACCTGTTGCCT (site CCAAGGACTAG)”, the “recombinant barcode read abundance (log10)” value worked out at 0.683.
For “CCAGGGACTTGGGTTCTAACCTGTTGCCT (site CCACGGACTAG)” the value was 0.294; for “CCAGGGACTTGGGTTCTAACCTGTTGCCT (site CCAGGGACTAG)”, 1.31.
For “CCAGGGACTTGGGTTCTAACCTGTTGCCT (site CCATGGACTAG)” the value was 0.0751.
With “CCAGTTACTTGGGTTCTAACCTGTTGCCT (site CCAGTAACTAG)” the figure was 0.104.
Regarding “CCAGTTACTTGGGTTCTAACCTGTTGCCT (site CCAGTCACTAG)”, the “recombinant barcode read abundance (log10)” value worked out at 0.132.
On to “CCAGTTACTTGGGTTCTAACCTGTTGCCT (site CCAGTGACTAG)”, for which the “recombinant barcode read abundance (log10)” value came to 0.195.
